In US11806393B2, “Flavivirus peptide sequences, epitopes, and methods and uses thereof” (priority 2017, dated 2023):

How the values were obtained:
Assay type in all cases: cell-based, mouse
CD8+ T cells = test: IFNγ ELISPOT, ZIKV-infected Ifnar-/- HLA-A*0101 transgenic mice; settings: HLA-A*0101 mice; for SFC/10^6 CD8+ T cells, FSS13025: 7 days after ZIKV FSS13025; for SFC/10^6 CD8+ T cells, MR766: 7 days after ZIKV MR766; for immunodominance in IFNγ ELISPOT: immunodominant: >500 SFCs/10^6 CD8+ T cells, shared by both ZIKV strains
Description: Two ZIKV strains, MR766 (Uganda, 1947) and FSS13025 (Cambodia, 2010), were obtained from the World Reference Center for Emerging Viruses and Arboviruses (WRCEVA). The mouse-adapted DENV2 strain S221 is a triple-plaque purified clone derived from DENV2 D2S1038. Both ZIKV and DENV2 were amplified in C6/36 mosquito cells, and viral titers were measured using baby hamster kidney (BHK)-21 cell-based focus forming assay (FFA). For epitope screening, 5-week old mice (female or male) were infected retro-orbitally (R.O.) with either 1×102 FFU of ZIKV FSS13025 or ZIKV MR766, or 2×10^4 FFU of DENV2 S221 in 200 μl 10% FBS/PBS. Seven days after infection, CD8^+ T cells were isolated from splenocytes and used for ELISPOT assay, while the splenocytes were directly used for ICS assay. Additionally, 5-week old mice were inoculated I.P. with 2×10^3 FFU of DENV2 S221 for 4 weeks.
CD8^+ T cells were isolated from splenocytes using magnetic bead positive selection (Miltenyi Biotec, Germany) 7 days after virus infection. 2×10^5 CD8^+ T cells were stimulated with 1×10^5 LPS-blasts loaded with 10 μg of individual peptide in 96-well flat-bottom plates (IMMOBILON™-P; Millipore, Bedford, Mass.) that were coated with anti-IFNγ mAb (clone AN18; Mabtech, Stockholm, Sweden) in triplicate. Concanavalin A (ConA) was used as positive control. After 20 hours of incubation, biotinylated anti-mouse IFNγ mAb (R4-6A2; Mabtech), followed by ABC peroxidase (Vector Laboratories, Burlingame, Calif., USA) and then 3-amino-9-ethylcarbazole (Sigma-Aldrich, St. Louis, Mo., USA) were added into the wells. […] A peptide inducing a magnitude of >500 SFCs/10^6 CD8^+ T cells was considered as an immunodominant peptide.
The following results are with respect to FIG. 9, where IFNγ ELISPOT was performed using CD8+ T cells isolated from Ifnar^−/− HLA-B*0702 transgenic mice (a and b) and Ifnar^−/− HLA-A*0101 transgenic mice (d and e) 7 days after retro-orbital (R.O.) infection with 1×10^2 FFU of ZIKV strain FSS13025 or MR766. Two independent experiments performed in triplicate were averaged and the error bars represent the SEM. The data are expressed as the mean number of spot forming cells (SFC) per 10^6 CD8^+ T cells. The criteria for positivity were net SFC per 10^6 cells of >20, and a stimulation index of >2.0 when compared with the negative control. Dotted lines represent the cutoff value. * Indicates a positive response. All positive peptides were grouped according the corresponding ZIKV protein (c and f); white and black bars are the total IFNγ response of all identified positive peptides from an indicated protein; numbers in parentheses are the number of positive peptides in this protein. ConA denotes Concanavalin A.

CD44+ CD4+ T cells [1] = test: ICS, DENV2 S221-infected Ifnar1-/- HLA-DRB1*0101 mice
Description: Ifnar1^−/− HLA-DRB1*0101 mice were infected intraperitoneally with 2×10^3 FFU of DENV2 strain […] for 7 days. Splenocytes were stimulated in vitro with the indicated ZIKV-derived HLA-DRB1*0101-binding peptides for 6 h. The frequency of CD44^+ CD4^+ T cells producing IFNγ, TNF, or IFNγ plus TNF (A) or IL-2 (B) were detected using the ICS assay. Data represent the mean±s.e.m. of three independent experiments (n=3-4 mice/experiment; total 10 mice). *P<0.05, **P<0.01, ***P<0.001, ****P<0.0001 by two-tailed Mann-Whitney test. Negative and positive refer to cells incubated alone or with PMA/ionomycin, respectively.
(§1) For the 30-peptide epitope screen, 5-week-old female or male mice were infected retro-orbitally (r.o.) with either 1×10^2 focus-forming units (FFU) of ZIKV SD001 or 2×10^3 FFU of DENV2 S221 in 200 μl of 10% fetal bovine serum in phosphate-buffered saline (FBS/PBS). Seven days after infection, spleens were removed and single-cell splenocyte suspensions were prepared. A total of 1×10^6 splenocytes was plated in each well of a 96-well U-bottom plate and stimulated with individual peptides (20 μg crude peptide per well) for 6 h. One hour into the incubation, brefeldin A (GolgiPlug, BD Biosciences) was added to the cells. Positive and negative controls were splenocytes stimulated with phorbol-12-myristate-13-acetate (PMA, 0.1 μg/ml) and ionomycin (1 μg/ml) or incubated alone, respectively.
(§2) After incubation of splenocytes with peptides or PMA/ionomycin, cells were harvested, washed, and incubated with Fc Block (CD16/CD32 mAb 2.4G2, BD Biosciences), followed by staining with fixable Live/Dead blue viability stain (Life technologies) and the following antibodies: PerCP-Cy5.5-conjugated anti-CD3 mAb (clone 145-2C11, Tonbo), APC-eFluor780-conjugated anti-CD4 mAb (clone GK1.5, Invitrogen), Brilliant Violet (BV) 785-conjugated anti-CD44 mAb (clone IMT, Biolegend), PE-conjugated anti-CD11a (clone M17/4, Biolegend), BV605-conjugated anti-CD49d (clone 9C10(MFR4.B, Biolegend), PE-conjugated anti-CD25 mAb (clone PC61, Biolegend), PE-conjugated or biotin-conjugated anti-CD185 mAb (CXCR5, clone SPRC15; Invitrogen), BV 605-conjugated anti-[…] mAb (PD1, clone 29F.1A12; Biolegend), and/or BV 421-conjugated streptavidin (#405225, Biolegend). Cells were then fixed and permeabilized using Cytofix/Cytoperm solution (BD Biosciences), followed by staining with FITC-conjugated anti-IFNγ mAb (clone XMG1.2, Tonbo), Alexa Fluor 700- or APC-conjugated anti-TNF mAb (clone MP6-XT22, eBioscience), PE-, BV 421-, or BV 711-conjugated anti-IL-2 mAb (clone JES6-5H4, Biolegend), APC-conjugated anti-IL-4 mAb (clone 11B11, Biolegend), PE-conjugated anti-IL-5 mAb (clone TRFK5, eBioscience), BV510-conjugated anti-IL-17A mAb (clone 17B7, eBioscience), and/or Alexa Fluor 700-conjugated anti-FoxP3 mAb (clone FJK-16S, eBioscience). Data were collected using an LSR Fortessa flow cytometer (BD Biosciences) and analyzed using FlowJo software X 10.0.7 (Tree Star).

CD44+ CD4+ T cells [2] = test: ICS, ZIKV SD001-infected Ifnar1-/- HLA-DRB1*0101 mice
Description: Ifnar1^−/− HLA-DRB1*0101 mice were infected retro-orbitally with 1×10^2 FFU of ZIKV strain SD001 for 7 days. Splenocytes were stimulated in vitro with the indicated ZIKV-derived HLA-DRB1*0101-binding peptides for 6 h, and the frequency of CD44^+ CD4^+ T cells producing IFNγ, TNF, or IFNγ plus TNF (A), IL-2 (B), and IL-17 (C) were detected using the ICS assay. Data represent the mean±s.e.m. of four independent experiments (n=3-5 mice/experiment; total 16 mice). *P<0.05, **P<0.01, ***P<0.001, ****P<0.0001 by two-tailed Mann-Whitney test. Negative and positive refer to cells incubated alone or with PMA/ionomycin, respectively. […]
as §1, §2

ETDENRAKV [FSS/MR-E159-167]
SFC/10^6 CD8+ T cells, FSS13025 (CD8+ T cells): 512 SFC/10^6 CD8+ T cells | SFC/10^6 CD8+ T cells, MR766 (CD8+ T cells): 516 SFC/10^6 CD8+ T cells | immunodominance in IFNγ ELISPOT (CD8+ T cells): immunodominant

GLDFSDLYY [FSS/MR-E195-203]
SFC/10^6 CD8+ T cells, FSS13025 (CD8+ T cells): 993 SFC/10^6 CD8+ T cells | SFC/10^6 CD8+ T cells, MR766 (CD8+ T cells): 647 SFC/10^6 CD8+ T cells | immunodominance in IFNγ ELISPOT (CD8+ T cells): immunodominant

WAIYAALTTFITPAV [NS4B40-54]
% CD4+ CD44+ T cells (DENV) TNFα+ (CD44+ CD4+ T cells [1]; 7 days after DENV2 S221, 6 h stimulation): 0.367% | cross-reactive response by DENV2-primed CD4+ T cells (CD44+ CD4+ T cells [1]; DENV2 S221, day 7): elicited cross-reactive responses | cytokines produced by DENV2-primed CD4+ T cells on peptide stimulation (CD44+ CD4+ T cells [1]; DENV2 S221, day 7): induced only TNF-producing cells | % CD4+ CD44+ T cells (ZIKV) INFγ+ TNFα+ (CD44+ CD4+ T cells [2]; 7 days after ZIKV SD001, 6 h stimulation): 0.049% | cytokines produced by ZIKV-primed CD4+ T cells on peptide stimulation (CD44+ CD4+ T cells [2]; ZIKV SD001, day 7): stimulated IFNγ plus TNF production | identification as Th1 epitope (IFNγ, TNF, IL-2 ICS) (CD44+ CD4+ T cells [2]; ZIKV-primed CD4+ T cells): Th1 epitopes

HMCDATMSY [FSS/MR-prM40-48]
SFC/10^6 CD8+ T cells, FSS13025 (CD8+ T cells): 288 SFC/10^6 CD8+ T cells

MSALEFYSY [FSS/MR-NS4B270-278]
SFC/10^6 CD8+ T cells, FSS13025 (CD8+ T cells): 378 SFC/10^6 CD8+ T cells

YLAGASLIY [FSS/MR-NS4B231-239]
SFC/10^6 CD8+ T cells, FSS13025 (CD8+ T cells): 1646 SFC/10^6 CD8+ T cells | SFC/10^6 CD8+ T cells, MR766 (CD8+ T cells): 1574 SFC/10^6 CD8+ T cells | immunodominance in IFNγ ELISPOT (CD8+ T cells): most immunodominant epitope

YLDKQSDTQY [FSS/MR-E81-90]
SFC/10^6 CD8+ T cells, FSS13025 (CD8+ T cells): 495 SFC/10^6 CD8+ T cells | SFC/10^6 CD8+ T cells, MR766 (CD8+ T cells): 258 SFC/10^6 CD8+ T cells

ELDPPFGDSY [FSS/MR-E377-386]
SFC/10^6 CD8+ T cells, FSS13025 (CD8+ T cells): 286 SFC/10^6 CD8+ T cells

FSDLYYLTM [FSS/MR-E198-206]
SFC/10^6 CD8+ T cells, FSS13025 (CD8+ T cells): 398 SFC/10^6 CD8+ T cells | SFC/10^6 CD8+ T cells, MR766 (CD8+ T cells): 388 SFC/10^6 CD8+ T cells
